Our source for the T/C values is PubChem BioAssay AID256 (DTP/NCI, 2004).

The subject of the test is CD2F1 mice, L1210 leukemia ip, survival T/C. Briefly: NCI In Vivo Anticancer Drug Screen. Data for tumor model L1210 Leukemia (intraperitoneal) in CD2F1 (CDF1) mice. Conditions: higher = longer survival. Put shortly:
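Mice carrying a transplanted tumor received test compound or vehicle alone. The value is the measurement in the treated group divided by that in the vehicle-treated control group.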

Setting [1] is: endpoint: mean survival time, dose: 150.0 mg/kg/injection, schedule: Q01DX001 (ip), vehicle: saline.
Setting [2] is: endpoint: mean survival time, dose: 100.0 mg/kg/injection, schedule: Q04DX003 (ip), vehicle: saline with Tween-80.
The mark [3] stands for this setting: endpoint: mean survival time, dose: 200.0 mg/kg/injection, schedule: Q04DX003 (ip), vehicle: saline with Tween-80.
The mark [4] stands for this setting: endpoint: mean survival time, dose: 400.0 mg/kg/injection, schedule: Q04DX003 (ip), vehicle: saline with Tween-80.
The mark [5] stands for this setting: endpoint: mean survival time, dose: 100.0 mg/kg/injection, schedule: Q04DX002 (ip), vehicle: saline with Tween-80.
The mark [6] stands for this setting: endpoint: mean survival time, dose: 200.0 mg/kg/injection, schedule: Q04DX002 (ip), vehicle: saline with Tween-80.
[7] abbreviates: endpoint: mean survival time, dose: 400.0 mg/kg/injection, schedule: Q04DX002 (ip), vehicle: saline with Tween-80.
The mark [8] stands for this setting: endpoint: mean survival time, dose: 100.0 mg/kg/injection, schedule: Q01DX001 (ip), vehicle: saline.
The mark [9] stands for this setting: endpoint: mean survival time, dose: 200.0 mg/kg/injection, schedule: Q01DX001 (ip), vehicle: saline.
[10] abbreviates: endpoint: mean survival time, dose: 400.0 mg/kg/injection, schedule: Q01DX001 (ip), vehicle: saline.
Setting [11] is: endpoint: mean survival time, dose: 100.0 mg/kg/injection, schedule: Q01DX009 (ip), vehicle: saline with Tween-80.
[12] abbreviates: endpoint: mean survival time, dose: 200.0 mg/kg/injection, schedule: Q01DX009 (ip), vehicle: saline with Tween-80.
Where [13] appears, read: endpoint: mean survival time, dose: 400.0 mg/kg/injection, schedule: Q01DX009 (ip), vehicle: saline with Tween-80.
Setting [14] is: endpoint: mean survival time, dose: 100.0 mg/kg/injection, schedule: Q01DX009 (ip), vehicle: Klucel (hydroxypropylcellulose) (HPC).
Where [15] appears, read: endpoint: mean survival time, dose: 200.0 mg/kg/injection, schedule: Q01DX009 (ip), vehicle: Klucel (hydroxypropylcellulose) (HPC).
Setting [16] is: endpoint: mean survival time, dose: 400.0 mg/kg/injection, schedule: Q01DX009 (ip), vehicle: Klucel (hydroxypropylcellulose) (HPC).

Values joined by “and” are separate entries in the source; they are usually repeats but may differ in a detail not shown here. Equal values may be shown once. Toxic doses and inconclusive results are not listed.

Regarding `C/C=C1\OC(n2cnc3c(N)ncnc32)C(O)C1O` (stereo not given), the T/C by setting is: (endpoint: mean survival time, dose: 12.5 mg/kg/injection, schedule: Q01DX005 (ip), vehicle: distilled water + Tween-80) 101 % of control; (endpoint: mean survival time, dose: 25.0 mg/kg/injection, schedule: Q01DX005 (ip), vehicle: distilled water + Tween-80) 109 % of control; (endpoint: mean survival time, dose: 50.0 mg/kg/injection, schedule: Q01DX005 (ip), vehicle: distilled water + Tween-80) 113 % of control; (endpoint: mean survival time, dose: 50.0 mg/kg/injection, schedule: Q01DX009 (ip), vehicle: distilled water + Tween-80) 112 % of control; (endpoint: mean survival time, dose: 100.0 mg/kg/injection, schedule: Q01DX005 (ip), vehicle: distilled water + Tween-80) 119 % of control; (endpoint: mean survival time, dose: 100.0 mg/kg/injection, schedule: Q01DX009 (ip), vehicle: distilled water + Tween-80) 124 % of control. Moreover, for the setting “endpoint: mean survival time, dose: 200.0 mg/kg/injection, schedule: Q01DX009 (ip), vehicle: distilled water + Tween-80”, the T/C was 157 % of control.
Regarding `CCN(CC)c1ccc(N=Nc2c(C)nc(N)nc2-c2ccccc2)cc1`, the T/C under setting [1] is 97 % of control.
`CN(C)CC[CH2][Sn]([CH3])([CH3])[CH3]`: the T/C was 104 % of control (endpoint: mean survival time, dose: 3.12 mg/kg/injection, schedule: Q01DX009 (ip), vehicle: saline with Tween-80); 100 % of control (endpoint: mean survival time, dose: 6.25 mg/kg/injection, schedule: Q01DX009 (ip), vehicle: saline with Tween-80); 90 % of control (endpoint: mean survival time, dose: 12.5 mg/kg/injection, schedule: Q01DX009 (ip), vehicle: saline with Tween-80).
For `CN(Cc1cnc2nc(N)nc(N)c2n1)c1ccc(C(=O)NC(CCC(=O)O)C(=O)NC(CC(=O)O)C(=O)O)cc1` (stereo not given), the T/C by setting is: (endpoint: mean survival time, dose: 1.0 mg/kg/injection, schedule: Q01DX009 (ip), vehicle: sodium bicarbonate) 100 % of control; (endpoint: mean survival time, dose: 2.0 mg/kg/injection, schedule: Q01DX009 (ip), vehicle: sodium bicarbonate) 111 % of control; (endpoint: mean survival time, dose: 5.0 mg/kg/injection, schedule: Q01DX009 (ip), vehicle: sodium bicarbonate) 121 % of control; (endpoint: mean survival time, dose: 50.0 mg/kg/injection, schedule: Q01DX009 (ip), vehicle: sodium bicarbonate) 105 % of control.
Take `CC(=O)Nc1ccc(S(=O)(=O)OCCCl)cc1`: the T/C was 96 % of control under setting [2], 110 % of control under setting [3] and 102 % of control under setting [4].
Consider `CCOC(=O)/C=C1/C=C(C)CC(C)(C)C1` (tested in a mixture with another compound), for which the T/C under setting [5] was 98 % of control, the T/C under setting [6] was 91 % of control and the T/C under setting [7] is 87 % of control.
In the case of `NC(N)=NCCN=C(N)N`, the T/C reads like this: under setting [8], 105 % of control; under setting [9], 94 % of control; under setting [10], 100 % of control.
For `CCCCNC(=O)C1CC2c3c(Br)ccc4c3C(CC2N(C)C1)CN4C(C)=O` (stereo not given), the T/C is, setting by setting: (endpoint: mean survival time, dose: 50.0 mg/kg/injection, schedule: Q04DX003 (ip), vehicle: saline with Tween-80) 86 % of control; under setting [3], 91 % of control.
In the case of `Cc1nc(C)c(Cc2ccccc2O)c(=O)[nH]1`, the T/C under setting [9] was 103 % of control.
On to `CC1OC(OCC2OC(Oc3c(-c4ccc(O)c(O)c4)oc4cc(O)cc(O)c4c3=O)C(O)C(O)C2O)C(O)C(O)C1O` (stereo not given), for which the T/C reads like this: under setting [8], 100 % of control; under setting [9], 102 % of control; under setting [10], 100 % of control.
Turning to `O=C(c1ccccc1)N(C(=O)c1ccccc1)c1cccc[n+]1[O-]`, the T/C was 100 % of control under setting [2], 97 % of control under setting [3] and 102 % of control under setting [4].
Regarding `O=C1OC(CBr)CC1(c1ccccc1)c1ccccc1` (stereo not given), the T/C was 95 % of control (endpoint: mean survival time, dose: 100.0 mg/kg/injection, schedule: Q01DX001 (ip), vehicle: saline with Tween-80); 102 % of control under setting [11]; 100 % of control (endpoint: mean survival time, dose: 200.0 mg/kg/injection, schedule: Q01DX001 (ip), vehicle: saline with Tween-80); 100 % of control under setting [12]; 100 % of control (endpoint: mean survival time, dose: 400.0 mg/kg/injection, schedule: Q01DX001 (ip), vehicle: saline with Tween-80); 102 % of control under setting [13].
Consider `CN(C)C=O`, for which the T/C is 101 % of control (endpoint: mean survival time, dose: 25.0 mg/kg/injection, schedule: Q01DX009 (ip), vehicle: saline); 97 % of control (endpoint: mean survival time, dose: 50.0 mg/kg/injection, schedule: Q01DX009 (ip), vehicle: saline); 101 % of control (endpoint: mean survival time, dose: 100.0 mg/kg/injection, schedule: Q01DX009 (ip), vehicle: saline); 111 % of control (endpoint: mean survival time, dose: 100.0 mg/kg/injection, schedule: Q04DX002 (ip), vehicle: saline); 100 % of control (endpoint: mean survival time, dose: 200.0 mg/kg/injection, schedule: Q01DX009 (ip), vehicle: saline); 96 % of control (endpoint: mean survival time, dose: 200.0 mg/kg/injection, schedule: Q04DX002 (ip), vehicle: saline). The T/C (endpoint: mean survival time, dose: 400.0 mg/kg/injection, schedule: Q01DX009 (ip), vehicle: saline) is 109 % of control; the T/C (endpoint: mean survival time, dose: 400.0 mg/kg/injection, schedule: Q04DX002 (ip), vehicle: saline) was 111 % of control; the T/C (endpoint: mean survival time, dose: 800.0 mg/kg/injection, schedule: Q01DX009 (ip), vehicle: saline) was 106 % of control; the T/C (endpoint: mean survival time, dose: 1600.0 mg/kg/injection, schedule: Q01DX009 (ip), vehicle: saline) is 105 % of control.
Take `C=C(Cl)CN(CC)CCO`: under setting [11], the T/C is 103 % of control.
`CCOP(=O)(OCC)C1=C(P(=O)(OCC)OCC)C(F)(F)C(F)(F)C1(F)F`: for the setting “endpoint: mean survival time, dose: 75.0 mg/kg/injection, schedule: Q01DX001 (ip), vehicle: other”, the T/C is 107 % of control.
With `CC(NC(=O)c1cccnc1)C(=O)O` (stereo not given), the T/C (endpoint: median survival time, dose: 25.0 mg/kg/injection, schedule: Q04DX003 (ip), vehicle: saline) was 105 % of control; the T/C (endpoint: median survival time, dose: 50.0 mg/kg/injection, schedule: Q04DX003 (ip), vehicle: saline) was 115 % of control; the T/C (endpoint: median survival time, dose: 100.0 mg/kg/injection, schedule: Q04DX003 (ip), vehicle: saline) was 94 % of control; the T/C (endpoint: median survival time, dose: 200.0 mg/kg/injection, schedule: Q04DX003 (ip), vehicle: saline) was 94 % of control.
Regarding `Cc1ccc(S(=O)(=O)N(CC(=O)O)c2cccc(Cl)c2)cc1`, the T/C under setting [14] is 101 % of control, the T/C under setting [15] was 98 % of control and the T/C under setting [16] was 100 % of control.
With `[Cl][Gd]([Cl])[Cl]`, the T/C is, setting by setting: under setting [11], 92 % of control; under setting [12], 94 % of control.
Turning to `CCCCn1c2ccccc2c2ccccc21`, the T/C was 94 % of control under setting [2] and 94 % of control under setting [4].
In the case of `CCCCOC(=O)C(N)=O`, the T/C is, setting by setting: under setting [14], 94 % of control; under setting [2], 97 % of control; under setting [15], 100 % of control; under setting [3], 100 % of control; under setting [16], 93 % of control; under setting [4], 102 % of control.
On to `Nc1nnnn1C1CCCCC1`, for which the T/C under setting [3] is 106 % of control, the T/C under setting [13] is 92 % of control and the T/C under setting [4] is 97 % of control.
As to `COc1ccc2c(c1O)CNCC2c1ccc(O)cc1O` (stereo not given), the T/C reads like this: (endpoint: mean survival time, dose: 75.0 mg/kg/injection, schedule: Q01DX001 (ip), vehicle: saline) 100 % of control; under setting [1], 98 % of control.
For the molecule `O=c1[nH]c(=O)n(C2OC(CO)C(O)C2O)cc1Br` (stereo not given), the T/C was 109 % of control under setting [5], 101 % of control under setting [6] and 101 % of control under setting [7].
As for `N\C([S-])=N/N=C\C(=N/N=C(\N)[S-])C(O)C(O)C(O)CO.[Fe+2]` (stereo not given), the T/C (endpoint: mean survival time, dose: 100.0 mg/kg/injection, schedule: Q01DX009 (ip), vehicle: saline sonified) is 91 % of control and the T/C (endpoint: mean survival time, dose: 200.0 mg/kg/injection, schedule: Q01DX009 (ip), vehicle: saline sonified) was 92 % of control.
Consider `COc1c(NC(=O)Nc2ccccc2C)cccc1[N+](=O)[O-]`, for which the T/C reads like this: (endpoint: mean survival time, dose: 50.0 mg/kg/injection, schedule: Q04DX002 (ip), vehicle: saline with Tween-80) 94 % of control; under setting [5], 90 % of control and 96 % of control.
